The text below walks through data of PubChem BioAssay (NCI).

Some test systems named below: HS 578T breast; KM12 colon; M14 melanoma; OVCAR-3 ovarian; RXF 393 renal; SF-268 CNS; UO-31 renal; SR leukemia.
Assay in all cases: NCI tumour cell line growth inhibition, 48 h

Structures are written as SMILES. Several values for one entry are separate records, joined by “and”; a condition that tells them apart may be missing. Equal values may be shown once.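 How tested: cells in 96-well plates exposed to compound for 48 hours at five concentrations. The concentration for 50% growth inhibition is given as GI50. TGI is the concentration that stops growth completely.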

Turning to `Cc1ccc(C2SCc3nc4ccc(C(=O)c5ccccc5)cc4n32)cc1` (stereo not given), the GI50 in the assay with HS 578T breast is 22.2 µM; in the assay with KM12 colon, 6.49 µM; in the assay with M14 melanoma it was 11.6 µM; in the assay on OVCAR-3 ovarian, 6.72 µM; in the assay with RXF 393 renal it was 21.4 µM; in the assay on SF-268 CNS it was 22.4 µM. Also, the GI50 in the assay on UO-31 renal was 17 µM. Also, the TGI in the assay with HS 578T breast is 68.9 µM; in the assay on KM12 colon, 35.2 µM; with M14 melanoma it was over 69.1 µM; with OVCAR-3 ovarian, 21.9 µM; with RXF 393 renal, 70.3 µM; with SF-268 CNS, 77.7 µM. This compound came in with a TGI in the assay with UO-31 renal of 54.9 µM.

Consider `Cc1ccc2[nH]c(C(=O)NN3C(=O)CSC34CCCC(C)C4)c(-c3ccccc3)c2c1` (stereo not given), for which the GI50 in the assay on HS 578T breast is 28.2 µM; in the assay with KM12 colon it was 16.2 µM; in the assay with M14 melanoma, 18.8 µM; with OVCAR-3 ovarian, 13.8 µM; with RXF 393 renal, 5.85 µM; in the assay with SF-268 CNS, 15.6 µM. For the same compound, in the assay on UO-31 renal, the GI50 was 0.0274 µM. In addition, the TGI amounted to 68 µM in the assay with HS 578T breast; 34.3 µM in the assay on KM12 colon; 35.5 µM in the assay with M14 melanoma; 30.3 µM with OVCAR-3 ovarian; 20.3 µM in the assay on RXF 393 renal; 32.5 µM with SF-268 CNS. The same compound returned a TGI in the assay on UO-31 renal of 10.6 µM.

As for `CCN(CC)CCCCCOc1cc(O)c2c(=O)cc(-c3ccccc3)oc2c1`, the GI50 is 15.6 µM in the assay with HS 578T breast; 2.89 µM in the assay with KM12 colon; 1.71 µM in the assay on M14 melanoma; 1.93 µM in the assay on OVCAR-3 ovarian; 1.6 µM in the assay on RXF 393 renal; 7.82 µM with SF-268 CNS. Moreover, the GI50 in the assay on UO-31 renal was 1.85 µM. The TGI was 42.7 µM with HS 578T breast; 9.37 µM in the assay on KM12 colon; 3.1 µM in the assay on M14 melanoma; 4.94 µM in the assay with OVCAR-3 ovarian; 3.37 µM in the assay on RXF 393 renal; 25.5 µM in the assay on SF-268 CNS. Moreover, the TGI with UO-31 renal worked out at 3.64 µM.

Consider `CN1CCN(Cc2ccc(NC(=O)c3[nH]ncc3Nc3ncnc4sccc34)cc2)CC1`, for which the GI50 in the assay with HS 578T breast was 0.0604 µM; in the assay with KM12 colon, 0.297 µM; in the assay with OVCAR-3 ovarian, 0.306 µM; with RXF 393 renal it was 0.171 µM; in the assay on SF-268 CNS, 0.446 µM; in the assay with SR leukemia, 0.219 µM. In addition, the GI50 with UO-31 renal was 0.357 µM. Also, the TGI in the assay with HS 578T breast is 2.93 µM; with KM12 colon it was over 100 µM; with OVCAR-3 ovarian, 2.54 µM; in the assay with RXF 393 renal, 0.535 µM; in the assay on SF-268 CNS it was 3.73 µM; with SR leukemia it was 0.73 µM. For the same compound, in the assay on UO-31 renal, the TGI was determined as 3.54 µM.

Take `COc1ccc2c(c1OC)-c1c(c3ccc([N+](=O)[O-])cc3c(=O)n1CCCN=[N+]=[N-])C2=O`: the GI50 was over 100 µM in the assay on HS 578T breast; over 100 µM in the assay on KM12 colon; 3.46 µM with M14 melanoma; 56.1 µM in the assay with OVCAR-3 ovarian; 10.1 µM with RXF 393 renal; 30.3 µM in the assay with SF-268 CNS. Further, the GI50 with UO-31 renal is 3.5 µM. For the same compound, the TGI in the assay on HS 578T breast was over 100 µM; with KM12 colon it was over 100 µM; in the assay with M14 melanoma, 10.6 µM; in the assay with OVCAR-3 ovarian, over 100 µM; in the assay on RXF 393 renal, over 100 µM; with SF-268 CNS, over 100 µM. In the assay with UO-31 renal, this compound had a TGI of over 100 µM.

Take `CC(C)c1cc(CNc2nc(Nc3cc(C4CC4)[nH]n3)cc(N3CCN(C)CC3)n2)on1`: the TGI was > 10 µM and 10.7 µM with KM12 colon; > 10 µM and 2.51 µM in the assay with M14 melanoma; > 10 µM and 4.1 µM with OVCAR-3 ovarian; > 10 µM and 2.25 µM in the assay on SF-268 CNS; 3.42 µM and 1.47 µM with SR leukemia; > 10 µM and 5.9 µM with UO-31 renal. Moreover, the GI50 with OVCAR-3 ovarian was 2.14 µM and 0.256 µM; with SF-268 CNS it was 1.7 µM and 0.277 µM; with SR leukemia it was 0.0422 µM and < 0.0198 µM; with UO-31 renal, 2 µM and 0.688 µM.

For `CCOC(=O)CNC(=O)CCCn1c(=O)c2c3ccccc3n(C)c2n2nnc(-c3ccccc3)c12`, the GI50 in the assay with HS 578T breast was 4.51 µM; in the assay on KM12 colon it was over 50 µM; with M14 melanoma, 18.7 µM; in the assay with OVCAR-3 ovarian, 12.5 µM; with RXF 393 renal it was 1.33 µM; with SF-268 CNS it was 14.2 µM. Further, the GI50 with UO-31 renal was 47.8 µM. In addition, the TGI in the assay with HS 578T breast is over 50 µM; in the assay on KM12 colon, over 50 µM; in the assay on M14 melanoma, over 50 µM; with OVCAR-3 ovarian it was 48.8 µM; with RXF 393 renal it was 4.41 µM; in the assay on SF-268 CNS it was over 50 µM. Besides, in the assay with UO-31 renal, the TGI was over 50 µM.

With `C=CC[Se]C(=O)Cc1c(C)n(C(=O)c2ccc(Cl)cc2)c2ccc(OC)cc12`, the GI50 with HS 578T breast is 2.25 µM; in the assay with KM12 colon, 1.53 µM; in the assay on M14 melanoma it was 1.64 µM; in the assay on OVCAR-3 ovarian, 1.78 µM; in the assay on SF-268 CNS, 2.23 µM; in the assay with SR leukemia, 2.29 µM. Also, in the assay on UO-31 renal, the GI50 was 1.54 µM. Also, the TGI was found to be 7.33 µM with HS 578T breast; 3.42 µM in the assay on KM12 colon; 3.16 µM in the assay with M14 melanoma; 3.24 µM in the assay with OVCAR-3 ovarian; 5.7 µM in the assay with SF-268 CNS; 8.19 µM in the assay with SR leukemia. This compound also came in with a TGI with UO-31 renal of 2.88 µM.

As for `Cc1ccc(S(=O)(=O)NC(CCC(=O)Nc2ccccc2)C(=O)Nc2ccccc2)cc1` (stereo not given), the GI50 was 0.404 µM in the assay on M14 melanoma, 0.419 µM in the assay with OVCAR-3 ovarian, 0.662 µM with RXF 393 renal and 0.274 µM with UO-31 renal. The TGI in the assay on M14 melanoma amounted to 3.62 µM; in the assay on OVCAR-3 ovarian, 1.35 µM; with RXF 393 renal it was 2.25 µM; in the assay with UO-31 renal, 3.39 µM.

On to `CCOC(=O)c1cc2cc(NC(=O)c3cc4cc([N+](=O)[O-])ccc4n3C)ccc2n1C`, for which the GI50 is 97.5 µM with HS 578T breast; 49 µM in the assay on KM12 colon; 34.7 µM in the assay with M14 melanoma; 31.7 µM in the assay on OVCAR-3 ovarian; 41 µM with RXF 393 renal; 49.1 µM with SF-268 CNS. In addition, the GI50 with UO-31 renal was over 100 µM. Moreover, the TGI in the assay on HS 578T breast, in the assay with KM12 colon, in the assay with M14 melanoma, in the assay with OVCAR-3 ovarian, with RXF 393 renal and with SF-268 CNS was over 100 µM throughout. For the same compound, in the assay on UO-31 renal, the TGI was over 100 µM.
